Measured values reported in US20090018111A1, “Novel Antimicrobial Medicament” (priority 2004, published 2009).
Like-named read-outs stand apart in the source and are kept apart here.

Tests used:
[1] = tested on: P. mirabiris GN2425; assay: Sensitivity test (agar dilution); type: cell-based, Proteus mirabilis; conditions: Proteus mirabilis
Description: (§1) The antibacterial activities were tested against various 18 bacteria (27 standard strains) which are representative bacteria caused clinically infectious disease (Staphylococcus aureus 3 strains, Staphylococcus epidermidis 1 strain, Micrococcus luteus 1 strain, Streptococcus pyogenes 1 strain, Enterococcus faecalis 1 strain, Enterococcus faecium 1 strain, Bacillus subtilis 1 strain, Escherichia coli 3 strains, Klebsiella pneumoniae 1 strain, Proteus mirabilis 1 strain, Proteus vulgaris 2 strains, Pseudomonas aeruginosa 3 strains, Serratia marcescens 2 strains, Enterobacter aerogenes 1 strain, Stenotrophomonas maltophilia 1 strain, Enterobacter cloacae 1 strain, Citrobacter freundii 1 strain, Moraxella catarrhalis 2 strains).
(§2) According to the standard method of Japan Chemotherapeutic Society (Chemotherapy, vol. […], p 76-79 (1981)) the test was carried out using the agar dilution method. After dissolving test samples in distilled water, agar medium containing the test samples was prepared in such a manner that the final concentration became twice serial dilution by pouring serially diluted combination drug solution or a single drug solution into agar medium. As agar medium was used Mueller Hinton Agar medium (MHA). Then, each strain was cultivated over night at 37° C. in an incubator and suspended in buffered saline solution with gelatin (BSG) in the concentration of about 10^6 CFU/ml. The suspension (about 5 μl) containing test strains was inoculated to the medium containing the test samples by Micro Planter.
(§3) When the sample is subjected to sensitivity test, this mixed solution was diluted by twice serial dilution method.
(§4) Furthermore, when the drug is solely used, each test sample was used as it is, and diluted by twice serial dilution method from the maximum concentration to the minimum concentration.
(§5) FIC index based on MIC value was calculated. […] Namely, when FIC index calculated by the following formula is equal or less than 1, the enhanced effect of the combination drug in said ratio is considered as positive. When FIC index is over 1, the enhanced effect of the combination drug in said ratio is considered as negative.
(§6) Formula of FIC index: FIC index=(MIC of Drug A in combination/MIC of Drug A alone)+(MIC of Drug B in combination/MIC of Drug B alone) N.C. in tables means being not calculated.

[2] = tested on: 18 bacteria (27 standard strains); assay: Sensitivity test, combination effect over the standard strains; type: cell-based; conditions: in combination with compound 1, standard strains
Description: as §1, §2, §3, §5, §6

[3] = tested on: B. cepacia 14429; assay: Sensitivity test (agar dilution), clinical isolate; type: cell-based, Burkholderia cepacia
Description: (§7) In addition, the antibacterial activities were tested against strains which are comparatively less sensitive to β-lactam compounds, namely clinically isolated 13 strains of Acinetobacter calcoaceticus and Acinetobacter lwoffi, clinically isolated 11 strains of Serratia marcescens, clinically isolated 12 strains of Burkholderia cepacia, and clinically isolated 15 strains of Pseudomonas aeruginosa.
as §2
(§8) Each drug was weighed, and dissolved in distilled water to give a test sample. When the drugs are used in combination, two kinds of solution containing each drug were mixed so as to be various ratio of concentration to give a mixed solution. When the sample is subjected to sensitivity test, this mixed solution was diluted by twice serial dilution method.
as §4

[4] = tested on: B. cepacia 1892324; assay: Sensitivity test (agar dilution), clinical isolate; type: cell-based, Burkholderia cepacia
Description: as §7, §2, §8, §4

[5] = tested on: B. cepacia 7438; assay: Sensitivity test (agar dilution), clinical isolate; type: cell-based, Burkholderia cepacia
Description: as §7, §2, §8, §4

[6] = tested on: B. cepacia 14428; assay: Sensitivity test (agar dilution), clinical isolate; type: cell-based, Burkholderia cepacia
Description: as §7, §2, §8, §4

[7] = tested on: B. cepacia 7247; assay: Sensitivity test (agar dilution), clinical isolate; type: cell-based, Burkholderia cepacia
Description: as §7, §2, §8, §4

[8] = tested on: B. cepacia 14607; assay: Sensitivity test (agar dilution), clinical isolate; type: cell-based, Burkholderia cepacia
Description: as §7, §2, §8, §4

[9] = tested on: B. cepacia 14427; assay: Sensitivity test (agar dilution), clinical isolate; type: cell-based, Burkholderia cepacia
Description: as §7, §2, §8, §4

[10] = tested on: B. cepacia 257-1; assay: Sensitivity test (agar dilution), clinical isolate; type: cell-based, Burkholderia cepacia
Description: as §7, §2, §8, §4

[11] = tested on: B. cepacia 1993527; assay: Sensitivity test (agar dilution), clinical isolate; type: cell-based, Burkholderia cepacia
Description: as §7, §2, §8, §4

[12] = tested on: B. cepacia 14430; assay: Sensitivity test (agar dilution), clinical isolate; type: cell-based, Burkholderia cepacia
Description: as §7, §2, §8, §4

[13] = tested on: B. cepacia 14300; assay: Sensitivity test (agar dilution), clinical isolate; type: cell-based, Burkholderia cepacia
Description: as §7, §2, §8, §4

[14] = GN2425, drug alone, P. mirabiris GN2425, read-out: MIC alone

C[C@@H](O)[C@H]1C(=O)N2C(C(=O)[O-])=C(SC3Cn4cnc[n+]4C3)[C@H](C)[C@H]12 (stereo partly drawn) [BIPM, biapenem]
the combination effect was recognized: combination effect [2]
0.25 µg/mL: MIC [1, 14]
0.125 µg/mL: MIC ([1]; GN2425, Concomitant (BIPM:SM = 1:1), P. mirabiris GN2425, read-out: MIC concomitant)

CC(C)(O/N=C(\C(=O)N[C@@H]1C(=O)N2C(C(=O)[O-])=C(C[n+]3ccccc3)CS[C@H]12)c1csc(N)n1)C(=O)O [CAZ, ceftazidime]
antagonism was recognized: combination effect [2]
0.031 µg/mL: MIC ([1]; GN2425, Concomitant (CAZ:SM = 1:1), P. mirabiris GN2425, read-out: MIC concomitant)
0.063 µg/mL: MIC [1, 14]

C[C@@H](O)[C@H]1C(=O)N2C(C(=O)O)=C(S[C@@H]3CN[C@H](CNS(N)(=O)=O)C3)[C@H](C)[C@H]12 [DRPM, doripenem]
the combination effect was recognized: combination effect [2]
0.063 µg/mL: MIC ([1]; GN2425, Concomitant (DRPM:SM = 1:1), P. mirabiris GN2425, read-out: MIC concomitant) | MIC [1, 14]

C[C@H]1C=C(c2csc(SC3=C(C(=O)O)N4C(=O)[C@H]([C@@H](C)O)[C@H]4[C@H]3C)n2)CN1 [SM, (4R,5S,6S)-6-[(1R)-1-Hydroxyethyl]-4-methyl-3-({4-[(5S)-5-methyl-2,5-dihydro-1H-pyrrol-3-yl]-1,3-thiazol-2-yl}sulfanyl)-7-oxo-1-azabicyclo[3.2.0]hept-2-ene-2-carboxylic acid]
≤ 0.063 µg/mL: MIC ([1]; GN2425, Concomitant (MEPM:SM = 1:4))
0.063 µg/mL: MIC ([1]; GN2425, Concomitant (MEPM:SM = 1:2)) | MIC ([1]; GN2425, read-out: MIC concomitant, Concomitant (DRPM:SM = 1:1), P. mirabiris GN2425) | MIC ([1]; GN2425, read-out: MIC concomitant, Concomitant (PIPC:SM = 1:1), P. mirabiris GN2425)
0.125 µg/mL: MIC ([1]; GN2425, alone) | MIC ([1]; GN2425, read-out: MIC alone, drug alone, P. mirabiris GN2425) | MIC ([1]; GN2425, read-out: MIC concomitant, Concomitant (BIPM:SM = 1:1), P. mirabiris GN2425) | MIC ([1]; GN2425, read-out: MIC concomitant, Concomitant (PAPM:SM = 1:1), P. mirabiris GN2425)
0.25 µg/mL: MIC ([10]; Burkholderia cepacia, 2571, Concomitant (ME:SM = 2:1)) | MIC ([13]; Burkholderia cepacia, 14300, Concomitant (ME:SM = 2:1)) | MIC ([1]; GN2425, Concomitant (IPM:SM = 1:1))
≤ 0.016 µg/mL: MIC ([1]; GN2425, Concomitant (MEPM:SM = 1:1))
4 µg/mL: MIC ([3]; Burkholderia cepacia, 14429, alone) | MIC ([4]; Burkholderia cepacia, 1892324, alone) | MIC ([7]; Burkholderia cepacia, 7247, Concomitant (ME:SM = 1:2)) | MIC ([8]; Burkholderia cepacia, 14607, alone) | MIC ([10]; Burkholderia cepacia, 2571, alone)
2 µg/mL: MIC ([3]; Burkholderia cepacia, 14429, Concomitant (ME:SM = 1:4)) | MIC ([4]; Burkholderia cepacia, 1892324, Concomitant (ME:SM = 1:2)) | MIC ([4]; Burkholderia cepacia, 1892324, Concomitant (ME:SM = 1:4)) | MIC ([5]; Burkholderia cepacia, 7438, Concomitant (ME:SM = 1:1)) | MIC ([5]; Burkholderia cepacia, 7438, Concomitant (ME:SM = 1:2)) | MIC ([6]; Burkholderia cepacia, 14428, Concomitant (ME:SM = 1:2)) | MIC ([6]; Burkholderia cepacia, 14428, Concomitant (ME:SM = 1:4)) | MIC ([7]; Burkholderia cepacia, 7247, Concomitant (ME:SM = 1:1)) | MIC ([8]; Burkholderia cepacia, 14607, Concomitant (ME:SM = 1:4)) | MIC ([9]; Burkholderia cepacia, 14427, Concomitant (ME:SM = 1:4)) | MIC ([11]; Burkholderia cepacia, 1993527, Concomitant (ME:SM = 1:2)) | MIC ([12]; Burkholderia cepacia, 14430, Concomitant (ME:SM = 1:2)) | MIC ([13]; Burkholderia cepacia, 14300, alone)
0.031 µg/mL: MIC ([1]; GN2425, read-out: MIC concomitant, Concomitant (CAZ:SM = 1:1), P. mirabiris GN2425) | MIC ([1]; GN2425, read-out: MIC concomitant, Concomitant (CPFX:SM = 1:1), P. mirabiris GN2425)
8 µg/mL: MIC ([5]; Burkholderia cepacia, 7438, Concomitant (ME:SM = 1:4)) | MIC ([6]; Burkholderia cepacia, 14428, alone) | MIC ([7]; Burkholderia cepacia, 7247, Concomitant (ME:SM = 1:4)) | MIC ([9]; Burkholderia cepacia, 14427, alone) | MIC ([11]; Burkholderia cepacia, 1993527, Concomitant (ME:SM = 1:4)) | MIC ([11]; Burkholderia cepacia, 1993527, alone) | MIC ([12]; Burkholderia cepacia, 14430, Concomitant (ME:SM = 1:4)) | MIC ([12]; Burkholderia cepacia, 14430, alone)
1 µg/mL: MIC ([3]; Burkholderia cepacia, 14429, Concomitant (ME:SM = 1:1)) | MIC ([3]; Burkholderia cepacia, 14429, Concomitant (ME:SM = 1:2)) | MIC ([4]; Burkholderia cepacia, 1892324, Concomitant (ME:SM = 1:1)) | MIC ([4]; Burkholderia cepacia, 1892324, Concomitant (ME:SM = 2:1)) | MIC ([5]; Burkholderia cepacia, 7438, Concomitant (ME:SM = 2:1)) | MIC ([6]; Burkholderia cepacia, 14428, Concomitant (ME:SM = 1:1)) | MIC ([7]; Burkholderia cepacia, 7247, Concomitant (ME:SM = 2:1)) | MIC ([8]; Burkholderia cepacia, 14607, Concomitant (ME:SM = 1:1)) | MIC ([8]; Burkholderia cepacia, 14607, Concomitant (ME:SM = 1:2)) | MIC ([9]; Burkholderia cepacia, 14427, Concomitant (ME:SM = 1:1)) | MIC ([9]; Burkholderia cepacia, 14427, Concomitant (ME:SM = 1:2)) | MIC ([10]; Burkholderia cepacia, 2571, Concomitant (ME:SM = 1:4)) | MIC ([11]; Burkholderia cepacia, 1993527, Concomitant (ME:SM = 1:1)) | MIC ([11]; Burkholderia cepacia, 1993527, Concomitant (ME:SM = 2:1)) | MIC ([12]; Burkholderia cepacia, 14430, Concomitant (ME:SM = 1:1)) | MIC ([12]; Burkholderia cepacia, 14430, Concomitant (ME:SM = 2:1)) | MIC ([13]; Burkholderia cepacia, 14300, Concomitant (ME:SM = 1:2)) | MIC ([13]; Burkholderia cepacia, 14300, Concomitant (ME:SM = 1:4))
0.016 µg/mL: MIC ([1]; GN2425, Concomitant drug (MEPM:SM = 2:1))
0.004 µg/mL: MIC ([1]; GN2425, read-out: MIC concomitant, Concomitant (AZT:SM = 1:1), P. mirabiris GN2425)
0.5 µg/mL: MIC ([3]; Burkholderia cepacia, 14429, Concomitant (ME:SM = 2:1)) | MIC ([6]; Burkholderia cepacia, 14428, Concomitant (ME:SM = 2:1)) | MIC ([8]; Burkholderia cepacia, 14607, Concomitant (ME:SM = 2:1)) | MIC ([9]; Burkholderia cepacia, 14427, Concomitant (ME:SM = 2:1)) | MIC ([10]; Burkholderia cepacia, 2571, Concomitant (ME:SM = 1:1)) | MIC ([10]; Burkholderia cepacia, 2571, Concomitant (ME:SM = 1:2)) | MIC ([13]; Burkholderia cepacia, 14300, Concomitant (ME:SM = 1:1))
16 µg/mL: MIC ([5]; Burkholderia cepacia, 7438, alone) | MIC ([7]; Burkholderia cepacia, 7247, alone)
